Assay results reported in PMC8975999, “Inhibition of RIPK1 by ZJU-37 promotes oligodendrocyte progenitor proliferation and remyelination via NF-κB pathway” (Cell Death Discovery, 2022).

Biological target: T1, RIPK1 (receptor interacting serine/threonine protein kinase 1) (Homo sapiens, UniProt Q13546)
T1 construct: Flag-RIPK1 immunoprecipitated from HEK293T cells
T1 sequence (Q13546 1-671): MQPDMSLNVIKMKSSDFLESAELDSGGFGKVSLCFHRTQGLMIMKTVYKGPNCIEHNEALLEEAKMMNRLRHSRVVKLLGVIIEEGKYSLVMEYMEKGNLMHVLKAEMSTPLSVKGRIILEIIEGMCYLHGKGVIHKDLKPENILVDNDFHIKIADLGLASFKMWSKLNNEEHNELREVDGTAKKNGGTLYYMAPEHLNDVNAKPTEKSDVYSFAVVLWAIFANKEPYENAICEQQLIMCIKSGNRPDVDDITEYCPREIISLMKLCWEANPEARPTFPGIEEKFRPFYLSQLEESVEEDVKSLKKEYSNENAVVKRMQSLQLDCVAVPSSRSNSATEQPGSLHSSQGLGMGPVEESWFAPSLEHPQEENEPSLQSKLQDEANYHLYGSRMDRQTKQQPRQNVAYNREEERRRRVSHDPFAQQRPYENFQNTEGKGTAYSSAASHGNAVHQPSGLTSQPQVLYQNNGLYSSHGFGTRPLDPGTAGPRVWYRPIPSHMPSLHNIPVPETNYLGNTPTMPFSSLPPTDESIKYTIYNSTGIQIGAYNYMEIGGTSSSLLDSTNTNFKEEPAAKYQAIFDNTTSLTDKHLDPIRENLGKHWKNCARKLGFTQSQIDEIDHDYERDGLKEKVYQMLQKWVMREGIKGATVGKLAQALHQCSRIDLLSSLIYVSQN
Test: in vitro kinase assay on immunoprecipitated Flag-RIPK1 (Kinase-Glo; p-S166 western blot)
Format: biochemical

SMILES: CN1C(=O)[C@@H](Cc2c[nH]c3c(Cl)c(F)ccc23)N(C=O)C1=O [ZJU-37]
- IC50: 366 nM
